Measured values published in patent US5114464A, “4-quinoxalinyloxyphenoxyalkylinitrile herbicides” (Uniroyal Chemical Company, Inc., priority 1990, dated 1992).

What was measured:
[1] = tested on: velvet leaf; assay: Preemergence control of velvet leaf (Table I); assay type: in vivo, Abutilon theoohrasti Medic.; conditions: 11.2 kg/ha, two weeks after treatment
Procedure: (§1) To illustrate the effectiveness of the Compounds 1 and 2 of this invention as preemergence herbicides, 300 mg of each compound were dissolved in 10 ml acetone to which 30 mg of an emulsifying agent, ethoxylated sorbitan monolaurate, were added. The solution was diluted to 100 ml with distilled water. Ten milliliters of the 3000 ppm solution were diluted to 250 ppm with distilled water. The chemical was applied at the rate of 10 lb/A (11.2 kg/ha) by drenching 46 ml of the 250 ppm solution on the surface of soil in 41/2inch (11.25 cm) plastic pots wherein seeds of the following weeds had been planted: velvet leaf (Abutilon theoohrasti Medic.) (VL), prickly sida (sida soinosa L.) (PS), tall morningglory (Ioomea purourea L. Roth) (TM), switchgrass (Panicum viroatum L.) (SG), barnyard grass (Echinolchloa crus-oalli (L.) Beauv.) (BG), and green foxtail (Setaria viridis) (L.) Beauv.) (GF). The percent control of the weeds compared to untreated checks was determined two weeks after treatment.

[2] = tested on: prickly sida; assay: Preemergence control of prickly sida (Table I); assay type: in vivo, sida soinosa L.; conditions: 11.2 kg/ha, two weeks after treatment
Procedure: as §1

[3] = tested on: tall morningglory; assay: Preemergence control of tall morningglory (Table I); assay type: in vivo, Ioomea purourea L. Roth; conditions: 11.2 kg/ha, two weeks after treatment
Procedure: as §1

[4] = tested on: barnyard grass; assay: Preemergence control of barnyard grass (Table I); assay type: in vivo, Echinolchloa crus-oalli (L.) Beauv.; conditions: 11.2 kg/ha, two weeks after treatment
Procedure: as §1

[5] = tested on: switchgrass; assay: Preemergence control of switchgrass (Table I); assay type: in vivo, Panicum viroatum L.; conditions: 11.2 kg/ha, two weeks after treatment
Procedure: as §1

[6] = tested on: green foxtail; assay: Preemergence control of green foxtail (Table I); assay type: in vivo, Setaria viridis (L.) Beauv.; conditions: 11.2 kg/ha, two weeks after treatment
Procedure: as §1

[7] = tested on: velvet leaf; assay: Postemergence control of velvet leaf (Table II); assay type: in vivo, Abutilon theoohrasti Medic.; conditions: 3000 ppm, two weeks after treatment
Procedure: as §1
(§2) To test the effectiveness of Compounds 1 and 2 of this invention as postemergence herbicides, a 3000 ppm solution of each compound (produced in accordance with the process described under Example 3) was atomized employing a DEVILBISS [trademark] sprayer, wetting the foliage to the drip point. […] The percent weed control was evaluated two weeks after treatment.

[8] = tested on: prickly sida; assay: Postemergence control of prickly sida (Table II); assay type: in vivo, sida soinosa L.; conditions: 3000 ppm, two weeks after treatment
Procedure: as §1, §2

[9] = tested on: tall morningglory; assay: Postemergence control of tall morningglory (Table II); assay type: in vivo, Ioomea purourea L. Roth; conditions: 3000 ppm, two weeks after treatment
Procedure: as §1, §2

[10] = tested on: barnyard grass; assay: Postemergence control of barnyard grass (Table II); assay type: in vivo, Echinolchloa crus-oalli (L.) Beauv.; conditions: 3000 ppm, two weeks after treatment
Procedure: as §1, §2

[11] = tested on: switchgrass; assay: Postemergence control of switchgrass (Table II); assay type: in vivo, Panicum viroatum L.; conditions: 3000 ppm, two weeks after treatment
Procedure: as §1, §2

[12] = tested on: green foxtail; assay: Postemergence control of green foxtail (Table II); assay type: in vivo, Setaria viridis (L.) Beauv.; conditions: 3000 ppm, two weeks after treatment
Procedure: as §1, §2

[13] = tested on: velvet leaf; assay: Postemergence selectivity, greenhouse: velvet leaf (Table V); assay type: in vivo, Abutilon theoohrasti Medic.; conditions: 2 weeks
Procedure: (§3) To illustrate the effectiveness of Compound 1 of this invention as a corn-safe selective postemergence herbicide, the 3000 ppm solution prepared as described in Example 3 was diluted with distilled water to 250 ppm and applied to foliage as described in Example 3. The commercial product Hoelon 3EC® (Hoechst) was included as a standard. The foliage included weedy grasses described in Example 3 in addition to the crops corn, soybeans and cotton. The foliage was planted in a Connecticut greenhouse on May 16, and was treated on May 26. The percent weed control and crop injury was determined on Jun. 12.
(§4) To illustrate the effectiveness of Compound 2 of this invention as a corn-safe selective postemergence herbicide, various concentrations of the compound were prepared and applied as in Example 5 to the following weeds and crops: velvet leaf (Abutilon theoohrasti Medic.) (VL), prickly sida (Sida spinosa L.) (PS), wild morningglory (Ipomopa sp.) (WM), barnyard grass (Echinolchloa crus-galli (L.) Beauv.) (BG), green foxtail (Setaria viridis) (L.) Beauv.) (GF), wild oat (Avena fatua L.) (WO), corn (CR), soybean (SO), cotton (CT) and rice (RC). The weeds and crops were planted in mid-September in a Connecticut greenhouse and were treated eight days later. The percent weed control and crop injury was determined 2 weeks after treatment.

[14] = tested on: prickly sida; assay: Postemergence selectivity, greenhouse: prickly sida (Table V); assay type: in vivo, Sida spinosa L.; conditions: 2 weeks
Procedure: as §3, §4

[15] = tested on: wild morningglory; assay: Postemergence selectivity, greenhouse: wild morningglory (Table V); assay type: in vivo, Ipomopa sp.; conditions: 2 weeks
Procedure: as §3, §4

[16] = tested on: wild oat; assay: Postemergence selectivity, greenhouse: wild oat (Table V); assay type: in vivo, Avena fatua L.; conditions: 2 weeks
Procedure: as §3, §4

[17] = tested on: green foxtail; assay: Postemergence selectivity, greenhouse: green foxtail (Table V); assay type: in vivo, Setaria viridis (L.) Beauv.; conditions: 2 weeks
Procedure: as §3, §4

[18] = tested on: barnyard grass; assay: Postemergence selectivity, greenhouse: barnyard grass (Table V); assay type: in vivo, Echinolchloa crus-galli (L.) Beauv.; conditions: 2 weeks
Procedure: as §3, §4

[19] = tested on: corn; assay: Postemergence selectivity, greenhouse: corn injury (Table V); assay type: in vivo; conditions: for Percent crop injury CR: postemergence, 2 weeks
Procedure: as §3, §4

[20] = tested on: soybean; assay: Postemergence selectivity, greenhouse: soybean injury (Table V); assay type: in vivo; conditions: 2 weeks
Procedure: as §3, §4

[21] = tested on: cotton; assay: Postemergence selectivity, greenhouse: cotton injury (Table V); assay type: in vivo; conditions: 2 weeks
Procedure: as §3, §4

[22] = tested on: rice; assay: Postemergence selectivity, greenhouse: rice injury (Table V); assay type: in vivo; conditions: 2 weeks
Procedure: as §3, §4

[23] = tested on: weeds; assay: Preemergence control, summary statement; assay type: in vivo; conditions: 11.2 kg/ha
Procedure: as §1

[24] = tested on: weeds; assay: Postemergence control, summary statement; assay type: in vivo; conditions: 3000 ppm
Procedure: as §1, §2

[25] = tested on: grass weeds; assay: Postemergence selectivity greenhouse (Example 7), summary for grass weeds; assay type: in vivo; conditions: 1000 to 3000 ppm
Procedure: as §3, §4

## CC(C#N)Oc1ccc(Oc2cnc3cc(Cl)ccc3n2)cc1 (stereo not shown) [Compound 2, 2-[4-(6-chloro-2-quinoxalinyloxy)phenoxy]propionitrile]
[1]
  % Control VL: 0%
[2]
  % Control PS: 0%
[3]
  % Control TM: 0%
[4]
  % Control BG: 50%
[5]
  % Control SG: 100%
[6]
  % Control GF: 25%
[7]
  % Control VL: 95%
[8]
  % Control PS: 75%
[9]
  % Control TM: 55%
[10]
  % Control BG: 65%
[11]
  % Control SG: 35%
[12]
  % Control GF: 95%
[13]; 1000 ppm
  Percent Weed Control VL: 90%
[13]; 2000 ppm
  Percent Weed Control VL: 90%
[13]; 3000 ppm
  Percent Weed Control VL: 90%
[14]; 1000 ppm
  Percent Weed Control PS: 0%
[14]; 2000 ppm
  Percent Weed Control PS: 0%
[14]; 3000 ppm
  Percent Weed Control PS: 0%
[15]; 1000 ppm
  Percent Weed Control WM: 10%
[15]; 2000 ppm
  Percent Weed Control WM: 10%
[15]; 3000 ppm
  Percent Weed Control WM: 20%
[16]; 1000 ppm
  Percent Weed Control WO: 0%
[16]; 2000 ppm
  Percent Weed Control WO: 0%
[16]; 3000 ppm
  Percent Weed Control WO: 10%
[17]; 1000 ppm
  Percent Weed Control GF: 100%
[17]; 2000 ppm
  Percent Weed Control GF: 100%
[17]; 3000 ppm
  Percent Weed Control GF: 100%
[18]; 1000 ppm
  Percent Weed Control BG: 85%
[18]; 2000 ppm
  Percent Weed Control BG: 85%
[18]; 3000 ppm
  Percent Weed Control BG: 95%
[19]; 1000 ppm
  Percent crop injury CR: 0%
[19]; 1000 to 3000 ppm
  corn safety: substantially innocuous to corn
[19]; 2000 ppm
  Percent crop injury CR: 0%
[19]; 3000 ppm
  Percent crop injury CR: 0%
[20]; 1000 ppm
  Percent crop injury SO: 20%
[20]; 2000 ppm
  Percent crop injury SO: 20%
[20]; 3000 ppm
  Percent crop injury SO: 20%
[21]; 1000 ppm
  Percent crop injury CT: 20%
[21]; 2000 ppm
  Percent crop injury CT: 20%
[21]; 3000 ppm
  Percent crop injury CT: 20%
[22]; 1000 ppm
  Percent crop injury RC: 50%
[22]; 2000 ppm
  Percent crop injury RC: 50%
[22]; 3000 ppm
  Percent crop injury RC: 50%
[23]
  herbicidal efficacy: good to excellent herbicidal efficacy
[24]
  postemergent herbicidal control: desirable postemergent herbicidal control
[25]
  control of several grass weeds: good control of several grass weeds
